Earlier results in patent US7312207B2, “Topical steroid cream formulations” (Taro Pharmaceuticals North America, Inc., priority 2004, dated 2007).

solubility in ethyl alcohol (ethyl alcohol): moderately soluble
solubility in octanol (octanol): slightly soluble
solubility in water (water): insoluble
SMILES: C[C@@H]1C[C@H]2[C@@H]3CCC4=CC(=O)C=C[C@]4(C)[C@@]3(Cl)[C@@H](O)C[C@]2(C)[C@@]1(OC(=O)c1ccco1)C(=O)CCl [Mometasone furoate, 9(alpha), 21-Dichloro-11(beta), 17-dihydroxy-16(alpha)-methylpregna-1,4-diene-3,20 dione 17-(2-furoate)]
